Assay results taken from ChEMBL document CHEMBL1201862, “PubChem BioAssay data set” (2004).
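Assay format: 96-well plates, 48-hour exposure. GI50 marks 50% less growth.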 Active and inactive are the calls of the source. No stated cut-off is given here; in the data, active = GI50 up to about 1.1 µM and inactive = higher.

Assays:
Test in all cases: inhibition of tumour cell growth, NCI panel, 48 h
RXF 393 = tested on: RXF 393
M19-MEL = tested on: M19-MEL
KM12 = tested on: KM12
DMS-114 = tested on: DMS-114
CCRF-CEM = tested on: CCRF-CEM
UO-31 = tested on: UO-31
UACC-62 = tested on: UACC-62
HOP-62 = tested on: HOP-62
M14 = tested on: M14
A498 = tested on: A498
SF-295 = tested on: SF-295
EKVX = tested on: EKVX
U-251 = tested on: U-251
SK-MEL-28 = tested on: SK-MEL-28
OVCAR-4 = tested on: OVCAR-4
NCI-H226 = tested on: NCI-H226
RPMI-8226 = tested on: RPMI-8226
NCI-H23 = tested on: NCI-H23
UACC-257 = tested on: UACC-257
SK-MEL-2 = tested on: SK-MEL-2
OVCAR-5 = tested on: OVCAR-5
TK-10 = tested on: TK-10
SNB-75 = tested on: SNB-75
HCC 2998 = tested on: HCC 2998
DMS-273 = tested on: DMS-273
SW-620 = tested on: SW-620
A549 = tested on: A549
SF-539 = tested on: SF-539
HCT-15 = tested on: HCT-15
DLD-1 = tested on: DLD-1
OVCAR-3 = tested on: OVCAR-3
SNB-78 = tested on: SNB-78
OVCAR-8 = tested on: OVCAR-8
CAKI-1 = tested on: CAKI-1
ACHN = tested on: ACHN
HL-60 = tested on: HL-60
SK-MEL-5 = tested on: SK-MEL-5
786-0 = tested on: 786-0
MOLT-4 = tested on: MOLT-4
LXFL 529 = tested on: LXFL 529
HCT-116 = tested on: HCT-116
IGROV-1 = tested on: IGROV-1
Malme-3M = tested on: Malme-3M
SK-OV-3 = tested on: SK-OV-3
NCI-H460 = tested on: NCI-H460
K562 = tested on: K562
HT-29 = tested on: HT-29
KM-20L2 = tested on: KM-20L2
COLO 205 = tested on: COLO 205
SF-268 = tested on: SF-268
NCI-H522 = tested on: NCI-H522
DU-145 = tested on: DU-145
Hs-578T = tested on: Hs-578T
MDA-N = tested on: MDA-N
SNB-19 = tested on: SNB-19
MCF7 = tested on: MCF7
MDA-MB-435 = tested on: MDA-MB-435
T47D = tested on: T47D
BT-549 = tested on: BT-549
MDA-MB-231 = tested on: MDA-MB-231
LOX IMVI = tested on: LOX IMVI
PC-3 = tested on: PC-3
SN12C = tested on: SN12C
SR = tested on: SR
NCI/ADR-RES = tested on: NCI/ADR-RES
HOP-92 = tested on: HOP-92

Question: How did the GI50 (RXF 393) turn out when `O=Cc1cn(C(=O)c2ccccc2)c2ccccc12` was run?
Answer: 53.5 µM (inactive)

Question: What about the GI50 (M19-MEL) of the same molecule?
Answer: > 100 µM (inactive)

Question: And the GI50 (KM12)?
Answer: 64 µM (inactive)

Question: What about the GI50 (DMS-114) of the same molecule?
Answer: 60.1 µM (inactive)

Question: What about the GI50 (CCRF-CEM) of the same molecule?
Answer: 43.2 µM (inactive)

Question: What about the GI50 (UO-31) of the same molecule?
Answer: 36.6 µM (inactive)

Question: What about the GI50 (UACC-62) of the same molecule?
Answer: > 100 µM (inactive)

Question: What about the GI50 (HOP-62) of the same molecule?
Answer: > 100 µM (inactive)

Question: And the GI50 (M14)?
Answer: > 100 µM (inactive)

Question: What about the GI50 (A498) of the same molecule?
Answer: > 100 µM (inactive)

Question: And the GI50 (SF-295)?
Answer: 38.1 µM (inactive)

Question: And the GI50 (EKVX)?
Answer: > 100 µM (inactive)

Question: What about the GI50 (U-251) of the same molecule?
Answer: > 100 µM (inactive)

Question: And the GI50 (SK-MEL-28)?
Answer: > 100 µM (inactive)

Question: And the GI50 (OVCAR-4)?
Answer: > 100 µM (inactive)

Question: And the GI50 (NCI-H226)?
Answer: 56 µM (inactive)

Question: And the GI50 (RPMI-8226)?
Answer: 37.2 µM (inactive)

Question: And the GI50 (NCI-H23)?
Answer: 80.4 µM (inactive)

Question: And the GI50 (UACC-257)?
Answer: 83 µM (inactive)

Question: What about the GI50 (SK-MEL-2) of the same molecule?
Answer: > 100 µM (inactive)

Question: What about the GI50 (OVCAR-5) of the same molecule?
Answer: > 100 µM (inactive)

Question: What about the GI50 (TK-10) of the same molecule?
Answer: > 100 µM (inactive)

Question: What about the GI50 (SNB-75) of the same molecule?
Answer: 43.6 µM (inactive)

Question: What about the GI50 (HCC 2998) of the same molecule?
Answer: > 100 µM (inactive)

Question: What about the GI50 (DMS-273) of the same molecule?
Answer: > 100 µM (inactive)

Question: What about the GI50 (SW-620) of the same molecule?
Answer: > 100 µM (inactive)

Question: And the GI50 (A549)?
Answer: > 100 µM (inactive)

Question: What about the GI50 (SF-539) of the same molecule?
Answer: 80 µM (inactive)

Question: And the GI50 (HCT-15)?
Answer: > 100 µM

Question: What about the GI50 (DLD-1) of the same molecule?
Answer: > 100 µM (inactive)

Question: And the GI50 (OVCAR-3)?
Answer: > 100 µM (inactive)

Question: And the GI50 (SNB-78)?
Answer: 36.9 µM (inactive)

Question: What about the GI50 (OVCAR-8) of the same molecule?
Answer: > 100 µM (inactive)

Question: What about the GI50 (CAKI-1) of the same molecule?
Answer: 82.8 µM (inactive)

Question: And the GI50 (ACHN)?
Answer: > 100 µM (inactive)

Question: What about the GI50 (HL-60) of the same molecule?
Answer: 28.7 µM (inactive)

Question: What about the GI50 (SK-MEL-5) of the same molecule?
Answer: 45 µM (inactive)

Question: And the GI50 (786-0)?
Answer: > 100 µM (inactive)

Question: And the GI50 (MOLT-4)?
Answer: 54.2 µM (inactive)

Question: And the GI50 (LXFL 529)?
Answer: 51.3 µM (inactive)

Question: What about the GI50 (HCT-116) of the same molecule?
Answer: 43.2 µM (inactive)

Question: And the GI50 (IGROV-1)?
Answer: > 100 µM (inactive)

Question: And the GI50 (Malme-3M)?
Answer: > 100 µM (inactive)

Question: And the GI50 (SK-OV-3)?
Answer: > 100 µM (inactive)

Question: What about the GI50 (NCI-H460) of the same molecule?
Answer: > 100 µM (inactive)

Question: What about the GI50 (K562) of the same molecule?
Answer: 70 µM (inactive)

Question: And the GI50 (HT-29)?
Answer: 71.3 µM (inactive)

Question: What about the GI50 (KM-20L2) of the same molecule?
Answer: > 100 µM (inactive)

Question: Which results are given for `c1ccc(-c2nnc(-c3ccccn3)c3c2C[C@@H]2C[C@@H]4Cc5c(-c6ccccn6)nnc(-c6ccccn6)c5[C@@H]4[C@H]32)nc1`?
Answer: GI50 (RXF 393): > 100 µM (inactive); GI50 (COLO 205): 35.1 µM (inactive); GI50 (SF-268): 35 µM (inactive); GI50 (KM12): 51.2 µM (inactive); GI50 (CCRF-CEM): 30.3 µM (inactive); GI50 (UO-31): 21.7 µM (inactive); GI50 (UACC-62): 41.7 µM (inactive); GI50 (NCI-H522): 96.6 µM (inactive); GI50 (DU-145): 38.8 µM (inactive); GI50 (HOP-62): 41.2 µM (inactive); GI50 (Hs-578T): 70.3 µM (inactive); GI50 (M14): 20 µM (inactive); GI50 (MDA-N): 46.6 µM (inactive); GI50 (A498): 2.39 µM (inactive); GI50 (SF-295): 58.9 µM (inactive); GI50 (SNB-19): 80.7 µM (inactive); GI50 (EKVX): 18 µM (inactive); GI50 (MCF7): 66.1 µM (inactive); GI50 (MDA-MB-435): 50.6 µM (inactive); GI50 (U-251): 22.2 µM (inactive); GI50 (SK-MEL-28): 34.8 µM (inactive); GI50 (OVCAR-4): 38.5 µM (inactive); GI50 (NCI-H226): 24.2 µM (inactive); GI50 (RPMI-8226): 44.7 µM (inactive); GI50 (NCI-H23): > 100 µM (inactive); GI50 (UACC-257): 66.7 µM (inactive); GI50 (T47D): 38.6 µM (inactive); GI50 (SK-MEL-2): 51.1 µM (inactive); GI50 (BT-549): 41.2 µM (inactive); GI50 (OVCAR-5): 61 µM (inactive); GI50 (TK-10): > 100 µM (inactive); GI50 (MDA-MB-231): > 100 µM (inactive); GI50 (SNB-75): 76.6 µM (inactive); GI50 (HCC 2998): 39.9 µM (inactive); GI50 (SW-620): 63.1 µM (inactive); GI50 (A549): 29 µM (inactive); GI50 (SF-539): 85.7 µM (inactive); GI50 (HCT-15): 38.8 µM; GI50 (OVCAR-3): 85.9 µM (inactive); GI50 (OVCAR-8): 36.8 µM (inactive); GI50 (CAKI-1): 58.7 µM (inactive); GI50 (LOX IMVI): 55.5 µM (inactive); GI50 (ACHN): 24.9 µM (inactive); GI50 (HL-60): 24.7 µM (inactive); GI50 (SK-MEL-5): 27.8 µM (inactive); GI50 (786-0): 33.7 µM (inactive); GI50 (PC-3): 41.5 µM (inactive); GI50 (MOLT-4): 33.2 µM (inactive); GI50 (SN12C): 48.8 µM (inactive); GI50 (HCT-116): 39.8 µM (inactive); GI50 (IGROV-1): 58.5 µM (inactive); GI50 (Malme-3M): 75.7 µM (inactive); GI50 (SK-OV-3): > 100 µM (inactive); GI50 (NCI-H460): 27.5 µM (inactive); GI50 (K562): 18.3 µM (inactive); GI50 (SR): 41.4 µM (inactive); GI50 (NCI/ADR-RES): 32.7 µM (inactive); GI50 (HT-29): 44.9 µM (inactive); GI50 (HOP-92): 60.4 µM (inactive)
